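All cell lines were grown in 96-well plates and treated with compound for 48 hours. The concentration for full growth arrest is given as TGI.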
Experiments:
Experiment in all cases: DTP human tumour cell line panel, 48 h
786-0 renal = tested on: 786-0 renal
A498 renal = tested on: A498 renal
ACHN renal = tested on: ACHN renal
HOP-62 NSCLC = tested on: HOP-62 NSCLC
M14 melanoma = tested on: M14 melanoma
MDA-MB-231 breast = tested on: MDA-MB-231 breast
NCI-H460 lung = tested on: NCI-H460 lung
NCI/ADR-RES ovarian = tested on: NCI/ADR-RES ovarian
SK-MEL-5 melanoma = tested on: SK-MEL-5 melanoma
UACC-62 melanoma = tested on: UACC-62 melanoma

With `CN(NC(=O)CCCl)C1=NCCCCN1` the TGI (786-0 renal) was greater than 100 µM, the TGI (A498 renal) was greater than 100 µM and the TGI (ACHN renal) was greater than 100 µM. The TGI (HOP-62 NSCLC) was greater than 100 µM, the TGI (M14 melanoma) was greater than 100 µM and the TGI (MDA-MB-231 breast) was greater than 100 µM. It also gave a TGI (NCI-H460 lung) greater than 100 µM, a TGI (NCI/ADR-RES ovarian) greater than 100 µM and a TGI (SK-MEL-5 melanoma) greater than 100 µM. For the same compound, the TGI (UACC-62 melanoma) was greater than 100 µM.
`CN(C)Cc1cc(O)c(O)c(CN(C)C)c1` gave a TGI (786-0 renal) greater than 100 µM, a TGI (A498 renal) greater than 100 µM and a TGI (ACHN renal) greater than 100 µM. The TGI (HOP-62 NSCLC) was greater than 100 µM, the TGI (M14 melanoma) was 59.3 µM and the TGI (MDA-MB-231 breast) was greater than 100 µM. For the same compound, the TGI (NCI-H460 lung) was 52.5 µM, the TGI (NCI/ADR-RES ovarian) was 65.9 µM and the TGI (SK-MEL-5 melanoma) was greater than 100 µM. For the same compound, the TGI (UACC-62 melanoma) was greater than 100 µM.
In the case of `COC(OC)C1OC(CO)C(n2ccc(N)nc2=O)C1O` (stereo not given), the TGI (786-0 renal) is reported as greater than 100 µM, the TGI (A498 renal) is reported as greater than 100 µM and the TGI (ACHN renal) is reported as greater than 100 µM. It also gave a TGI (HOP-62 NSCLC) greater than 100 µM, a TGI (M14 melanoma) greater than 100 µM and a TGI (MDA-MB-231 breast) greater than 100 µM. For the same compound, the TGI (NCI-H460 lung) was greater than 100 µM, the TGI (NCI/ADR-RES ovarian) was greater than 100 µM and the TGI (SK-MEL-5 melanoma) was greater than 100 µM. The TGI (UACC-62 melanoma) was greater than 100 µM.
`O=C1c2c(nc3ccccc3c2-c2ccccc2)CN1Nc1ccccn1` was tested, and the TGI (786-0 renal) was greater than 93.1 µM, the TGI (A498 renal) was 18.1 µM and the TGI (ACHN renal) was greater than 100 µM. For the same compound, the TGI (HOP-62 NSCLC) was greater than 100 µM, the TGI (M14 melanoma) was greater than 100 µM and the TGI (MDA-MB-231 breast) was greater than 100 µM. The TGI (NCI-H460 lung) was greater than 83.2 µM, the TGI (NCI/ADR-RES ovarian) was greater than 100 µM and the TGI (SK-MEL-5 melanoma) was greater than 100 µM. The TGI (UACC-62 melanoma) was greater than 100 µM.
Work on `C(=C\c1ccccc1)/C=N/c1nc2cc3sc(/N=C/C=C/c4ccccc4)nc3cc2s1` yielded a TGI (786-0 renal) greater than 100 µM, a TGI (A498 renal) greater than 100 µM and a TGI (ACHN renal) greater than 100 µM. It also gave a TGI (HOP-62 NSCLC) greater than 100 µM, a TGI (M14 melanoma) greater than 100 µM and a TGI (MDA-MB-231 breast) greater than 100 µM. For the same compound, the TGI (NCI-H460 lung) was greater than 100 µM, the TGI (NCI/ADR-RES ovarian) was greater than 100 µM and the TGI (SK-MEL-5 melanoma) was greater than 100 µM. The TGI (UACC-62 melanoma) was greater than 100 µM.
In the case of `COc1ccc(N=N/C(=N/NC(=O)c2ccccc2)c2ccc(N(CCC#N)CCC#N)cc2C)cc1`, the TGI (786-0 renal) is reported as greater than 100 µM, the TGI (A498 renal) is reported as greater than 100 µM and the TGI (ACHN renal) is reported as greater than 100 µM. It also gave a TGI (HOP-62 NSCLC) greater than 100 µM, a TGI (M14 melanoma) greater than 100 µM and a TGI (MDA-MB-231 breast) greater than 100 µM. It also gave a TGI (NCI-H460 lung) greater than 100 µM, a TGI (NCI/ADR-RES ovarian) greater than 100 µM and a TGI (SK-MEL-5 melanoma) greater than 100 µM. The TGI (UACC-62 melanoma) was greater than 100 µM.
`NC(=S)Nc1[nH]c(=S)nc2c1SC1=N/C(=C\c3ccco3)C(=O)N12` showed a TGI (786-0 renal) greater than 100 µM, a TGI (A498 renal) greater than 100 µM and a TGI (ACHN renal) greater than 100 µM. It also gave a TGI (HOP-62 NSCLC) greater than 100 µM, a TGI (M14 melanoma) greater than 100 µM and a TGI (MDA-MB-231 breast) greater than 100 µM. The TGI (NCI-H460 lung) was greater than 100 µM, the TGI (NCI/ADR-RES ovarian) was greater than 100 µM and the TGI (SK-MEL-5 melanoma) was greater than 100 µM. It also gave a TGI (UACC-62 melanoma) greater than 100 µM.
With `COc1cc(/C=C2\N=C(c3ccccc3)N(c3nc4c(OC)ccc(OC)c4s3)C2=O)cc(OC)c1OC` the TGI (786-0 renal) was greater than 100 µM, the TGI (A498 renal) was greater than 100 µM and the TGI (ACHN renal) was greater than 100 µM. It also gave a TGI (HOP-62 NSCLC) greater than 100 µM, a TGI (M14 melanoma) greater than 100 µM and a TGI (MDA-MB-231 breast) greater than 100 µM. It also gave a TGI (NCI-H460 lung) greater than 100 µM, a TGI (NCI/ADR-RES ovarian) greater than 100 µM and a TGI (SK-MEL-5 melanoma) greater than 100 µM. It also gave a TGI (UACC-62 melanoma) greater than 100 µM.
In the case of `COc1cccc(N(CN2CC=CC2=O)C(C)=O)c1`, the TGI (786-0 renal) is reported as greater than 100 µM, the TGI (A498 renal) is reported as greater than 100 µM and the TGI (ACHN renal) is reported as greater than 100 µM. The TGI (HOP-62 NSCLC) was greater than 100 µM, the TGI (M14 melanoma) was greater than 100 µM and the TGI (MDA-MB-231 breast) was greater than 100 µM. The TGI (NCI-H460 lung) was greater than 100 µM, the TGI (NCI/ADR-RES ovarian) was greater than 100 µM and the TGI (SK-MEL-5 melanoma) was greater than 100 µM. For the same compound, the TGI (UACC-62 melanoma) was greater than 100 µM.
`CNC(=O)c1cc(NC(=O)N(CCC#N)CCN(C(=O)N[C@@H](Cc2ccccc2)C(=O)N[C@@H](CC(C)C)C(=O)NC)c2ccccc2)ccc1OC` was tested, and the TGI (786-0 renal) was greater than 100 µM, the TGI (A498 renal) was greater than 91.5 µM and the TGI (ACHN renal) was greater than 100 µM. It also gave a TGI (HOP-62 NSCLC) greater than 100 µM, a TGI (M14 melanoma) greater than 100 µM and a TGI (MDA-MB-231 breast) greater than 60.3 µM. For the same compound, the TGI (NCI-H460 lung) was 50.9 µM, the TGI (NCI/ADR-RES ovarian) was greater than 100 µM and the TGI (SK-MEL-5 melanoma) was greater than 69.2 µM. It also gave a TGI (UACC-62 melanoma) greater than 55.4 µM.
For `CCOC(=O)/C=C(/C(=O)OCC)n1cc(C)c(=O)n(Cc2cn(COCCOC(C)=O)nn2)c1=O`, the TGI (786-0 renal) was greater than 54.8 µM, the TGI (A498 renal) was greater than 100 µM and the TGI (ACHN renal) was 21.6 µM. It also gave a TGI (HOP-62 NSCLC) greater than 100 µM, a TGI (M14 melanoma) greater than 100 µM and a TGI (MDA-MB-231 breast) of 50.9 µM. The TGI (NCI-H460 lung) was greater than 63.1 µM, the TGI (NCI/ADR-RES ovarian) was 67.9 µM and the TGI (SK-MEL-5 melanoma) was greater than 59.8 µM. For the same compound, the TGI (UACC-62 melanoma) was 40.9 µM.

From PubChem BioAssay (NCI)
